Results from patent publication US11129897B2, “Fast-acting plant-based medicinal compounds and nutritional supplements” (RECEPTOR HOLDINGS, INC., priority 2016, dated 2021).

Key:
[1] = versus molecule without SNAC; in words; cited from earlier work
study participants [2] = assay: Onset and duration of action of orally administered Cannabis/SNAC composition at a low SNAC dose (Example 3, 100 mg SNAC); assay type: in vivo, human; details: oral; 100 mg SNAC with Cannabis concentrate (8 mg THC)
Experimental: This study was designed to assess the utility of SNAC in enabling a rapid-acting oral form of Cannabis at a low dose.
Selection of Participants. Three study participants were recruited to ingest Cannabis compositions and record the onset, duration, and intensity of Cannabis-induced euphoria and/or dysphoria.
(§1) Formulations. The selected Cannabis concentrate is commercially available and was provided to participants in an ethanol solution. The concentrate contains 8 mg THC per dose. It was selected because it contains a high percentage of THC, which provides a noticeable effect on user-reported “euphoria”.
(§2) Methods. For the Control experiment, each participant mixed the Cannabis concentrate with 15 ml (one tablespoon) of aqueous ethanol, and immediately swallowed the mixture.
(§3) For both the Control experiment and the Test experiment, each participant recorded the time of dose administration, the time of onset of euphoria and/or dysphoria, and the observed level of euphoria and/or dysphoria in fifteen minute intervals for five hours following administration of the Cannabis dose. Euphoria and dysphoria were reported using a scale value, in a range from 1-5.

study participants [3] = assay: Onset and duration of action of orally administered Cannabis/SNAC composition (Example 2, 200 mg SNAC); assay type: in vivo, human; details: oral; 200 mg SNAC with Cannabis concentrate (8 mg THC)
Experimental: This study was designed to assess the utility of SNAC in enabling a rapid-acting oral form of Cannabis.
Selection of Participants. Six study participants were recruited to ingest Cannabis compositions and record the onset, duration, and intensity of Cannabis-induced euphoria and/or dysphoria.
as §1, §2
as §3, with “1-10.” for “1-5.”

[4] = cited from earlier work

Molecule	absorption when co-administered with an N-acylated fatty amino acid (e.g., SNAC) [1]	other results
heparin	improved absorption	
sodium N-[8-(2-hydroxybenzoyl) amino] caprylate [SNAC]		effect of the absorption enhancer on the duration of action of Cannabis (study participants [2]): no effect on the duration of action; effect of the absorption enhancer on the duration of action of Cannabis (study participants [3]): no effect on the duration of action
GLP-1: GLP-1, water-soluble molecule with SNAC-improved absorption	improved absorption	
peptide yy: peptide yy, water-soluble molecule with SNAC-improved absorption	improved absorption	
CCCCCN(C)CCC(O)(P(=O)(O)O)P(=O)(O)O [ibandronate]	improved absorption	
calcitonin: calcitonin, water-soluble molecule with SNAC-improved absorption	improved absorption	
rhGH: recombinant human growth hormone	improved absorption	
PTH 1-34: parathyroid hormone 1-34	improved absorption	
vitamin B12	improved absorption	
MT-II	improved absorption	
CCCCCc1cc(O)c2c(c1)OC(C)(C)[C@@H]1CCC(C)=C[C@@H]21 [THC, delta-9-tetrahydrocannabinol]		appetite stimulant effect may continue after administration ([4]; after oral administration): ≥ 24 h; duration of action for psychoactive effects ([4]; after oral administration): 4 to 6 h; peak effect (time) ([4]; after oral administration): 2 to 4 h; administered dose that reaches the systemic circulation ([4]; oral, first pass hepatic metabolism and poor aqueous solubility): 10-20%
